In general, GI50 refers to the concentration that inhibits growth by half. Read a high GI50 as lower sensitivity of the cells.

The text below walks through data of patent US12350272B2, “Pyridopyrimidinone derivatives for use as AXL inhibitors” (OSCOTEC INC., priority 2018, dated 2025).

Where a name gives a salt, the structure may show the parent alone. Read-outs that look alike come from different tables or passages of the source.

One assay deals with Truncated human Axl (Homo sapiens, UniProt P30530). Description: Kinase inhibition assay (inhibition of enzymatic Axl kinase activity). The class given is biochemical. As for the experimental part: Compounds of Formula (I) as obtained above were assayed to measure their capacity to inhibit Axl kinase. Axl belongs to the recently identified TYRO-3, Axl, MERTK (TAM) receptor tyrosine kinase (RTK) family. […] Upon GAS6 binding, Axl homodimerizes and subsequently induces several downstream signaling pathways involved in cell proliferation, migration, invasion, anti-apoptosis, angiogenesis, metastasis, and therapeutic resistance. Upregulation of Axl has been reported in a wide variety of cancer cell lines as well as in cancer specimens from patients with breast cancer, acute leukemia, colorectal cancer, lung cancer, melanoma, ovarian cancer, or prostate cancer, among others.
Truncated human Axl, sequence (P30530 26-894 limits assumed): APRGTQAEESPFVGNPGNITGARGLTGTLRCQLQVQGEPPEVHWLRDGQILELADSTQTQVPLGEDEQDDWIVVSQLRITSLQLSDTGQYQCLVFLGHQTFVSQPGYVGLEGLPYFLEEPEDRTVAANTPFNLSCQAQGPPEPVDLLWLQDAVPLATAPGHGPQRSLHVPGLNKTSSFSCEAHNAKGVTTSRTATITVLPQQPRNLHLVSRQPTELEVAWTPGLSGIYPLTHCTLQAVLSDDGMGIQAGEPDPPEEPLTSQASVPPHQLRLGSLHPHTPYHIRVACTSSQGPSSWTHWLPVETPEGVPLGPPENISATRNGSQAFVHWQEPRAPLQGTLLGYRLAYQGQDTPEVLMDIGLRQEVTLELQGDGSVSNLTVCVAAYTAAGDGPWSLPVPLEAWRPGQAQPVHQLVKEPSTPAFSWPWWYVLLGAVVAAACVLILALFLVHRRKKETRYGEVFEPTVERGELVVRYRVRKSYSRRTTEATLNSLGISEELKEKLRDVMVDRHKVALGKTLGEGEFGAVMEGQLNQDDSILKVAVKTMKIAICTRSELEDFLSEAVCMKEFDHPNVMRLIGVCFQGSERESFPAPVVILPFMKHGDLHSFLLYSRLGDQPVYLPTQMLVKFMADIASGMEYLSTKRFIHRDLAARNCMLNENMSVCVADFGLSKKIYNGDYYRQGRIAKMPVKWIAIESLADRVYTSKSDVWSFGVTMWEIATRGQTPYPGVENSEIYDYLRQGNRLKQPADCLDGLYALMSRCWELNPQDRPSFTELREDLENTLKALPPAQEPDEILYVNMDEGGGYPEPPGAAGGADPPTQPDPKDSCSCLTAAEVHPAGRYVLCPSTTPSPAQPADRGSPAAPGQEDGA
Compounds of Formula (I) as obtained above were initially diluted to […] in 100% DMSO (CALBIOCHEM™) for storage and made into kinase buffer solution to create a compound concentration ranging from 1 uM and 10 uM. Serial dilutions of the compounds were dispensed into a 96-well plate (GREINER BIOSCIENCES™) at 6 μL each. Truncated human Axl (CARNA BIOSCIENCES™) were diluted in kinase buffer and added to the compound solutions and pre-incubated for 30 minutes at room temperature. […] The reaction mixture was incubated for 1 hour. Following the incubation, the stop solution made with EDTA, water, and Lance detection buffer ([…]™) were added (12 μL each) to stop phosphorylation.

The subject of another assay is Hs578T cells. In words: Cell viability assay (ATPLite), Hs578T. In kind it is cell-based, human. As to conditions: Homo sapiens, Hs-578T, 72 h, 72 hour incubation. The source says:
(§1) Axl is a member of the TAM (TYRO3-Axl-MER) family of receptor tyrosine kinases, which, when activated, can increase tumor cell survival, proliferation, migration and invasion, angiogenesis, and tumor-host interactions. Upon GAS6 binding to Axl, Axl subsequently activates the signaling pathways downstream such as phosphoinositide 3-kinase (PI3K), RAt sarcoma (RAS), and extracellular signal regulated kinase (ERK).
(§2) This cell line was maintained with an Roswell Park Memorial Institute (RPMI) medium (HYCLONE™) containing 10% bovine calf serum (BCS; HYCLONE™) supplemented iron. The cells were seeded at 2×10^4 cells in 96-well culture plates, and serially diluted compounds were then added. After a 72 hour incubation period at 37° C., cell viability was measured using the ATPLite 1 step assay (PERKIN-ELMER™) that is based on the quantification of ATP from viable cells.

The subject of another assay is MDA-MB-231 cells. In words: Cell viability assay (ATPLite), MDA-MB-231. The class given is cell-based, human. The following applies: Homo sapiens, MDA-MB-231, 72 h, 72 hour incubation.
Description: as §1, §2
(In general: Cellular ATP, detected with luciferase, serves as a proxy for viable cell number.)

A further assay concerns the target JAK2 (Homo sapiens (Human), UniProt O60674). Description: Biochemical inhibition of JAK2. The following applies: Table 2, range of IC50 value.
Where [1] appears, read: Table 2, range of IC50 value, read-out: Axl.

JAK2, sequence (O60674 whole entry, species assumed): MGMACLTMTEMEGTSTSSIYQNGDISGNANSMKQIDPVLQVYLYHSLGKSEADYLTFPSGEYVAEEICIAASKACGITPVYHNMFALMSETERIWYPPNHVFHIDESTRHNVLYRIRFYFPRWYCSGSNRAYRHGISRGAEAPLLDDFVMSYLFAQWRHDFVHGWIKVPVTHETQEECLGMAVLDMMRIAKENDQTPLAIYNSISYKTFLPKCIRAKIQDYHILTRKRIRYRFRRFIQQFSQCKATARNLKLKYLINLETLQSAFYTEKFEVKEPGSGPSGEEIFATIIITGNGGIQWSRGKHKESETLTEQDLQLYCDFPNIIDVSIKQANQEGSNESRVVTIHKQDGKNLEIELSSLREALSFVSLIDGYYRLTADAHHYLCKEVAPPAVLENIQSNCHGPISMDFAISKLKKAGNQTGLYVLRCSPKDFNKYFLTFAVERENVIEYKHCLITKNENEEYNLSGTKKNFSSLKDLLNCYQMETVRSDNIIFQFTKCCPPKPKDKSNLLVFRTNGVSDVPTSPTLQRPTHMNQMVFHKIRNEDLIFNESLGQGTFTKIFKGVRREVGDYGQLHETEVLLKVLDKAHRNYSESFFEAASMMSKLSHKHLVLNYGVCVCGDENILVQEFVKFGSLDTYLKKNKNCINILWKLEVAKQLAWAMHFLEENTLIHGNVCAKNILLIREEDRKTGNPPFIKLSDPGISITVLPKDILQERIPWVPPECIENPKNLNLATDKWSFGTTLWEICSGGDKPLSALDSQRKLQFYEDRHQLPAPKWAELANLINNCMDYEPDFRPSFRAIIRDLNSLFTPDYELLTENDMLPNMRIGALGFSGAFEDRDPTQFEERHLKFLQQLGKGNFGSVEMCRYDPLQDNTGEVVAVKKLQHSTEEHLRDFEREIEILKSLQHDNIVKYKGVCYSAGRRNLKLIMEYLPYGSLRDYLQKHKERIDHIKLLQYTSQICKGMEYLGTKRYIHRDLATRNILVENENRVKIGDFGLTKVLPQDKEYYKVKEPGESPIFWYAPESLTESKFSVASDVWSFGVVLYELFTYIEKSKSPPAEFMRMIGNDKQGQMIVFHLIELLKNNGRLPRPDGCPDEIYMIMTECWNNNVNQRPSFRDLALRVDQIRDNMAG

Regarding `CN1CCC(Nc2nc(Nc3ccc(Oc4cc(F)cc(F)c4)cc3)c3c(=O)[nH]cc(Br)c3n2)CC1` [Compound 243, 8-bromo-4-((4-(3,5-difluorophenoxy)phenyl)amino)-2-((1-methylpiperidin-4-yl)amino)pyrido[4,3-d]pyrimidin-5(6H)-one hydrochloride], the IC50 at Truncated human Axl (Table 1, read-out: Axl (IC50)) lay in the range of 11 to 100 nM. Take `CN1CCC(Nc2nc(Nc3ccc(OCC4CCCCC4)cc3)c3c(=O)[nH]cc(Br)c3n2)CC1` [Compound 224, 8-bromo-4-((4-(cyclohexylmethoxy)phenyl)amino)-2-((1-methylpiperidin-4-yl)amino)pyrido[4,3-d]pyrimidin-5(6H)-one]: at Truncated human Axl (Table 1, read-out: Axl (IC50)), the IC50 lay in the range of 101 to 1000 nM.

For `CN1CCC(Nc2nc(Nc3ccc(OCC4CCCC4)cc3)c3c(=O)[nH]cc(Br)c3n2)CC1` [Compound 235, 8-bromo-4-((4-(cyclopentylmethoxy)phenyl)amino)-2-((1-methylpiperidin-4-yl)amino)pyrido[4,3-d]pyrimidin-5(6H)-one hydrochloride], the GI50 with Hs578T cells and in the assay on MDA-MB-231 cells was 1100 to 3000 nM each time. In addition, the IC50 on Truncated human Axl (Table 1, read-out: Axl (IC50)) was in the range of 101 to 1000 nM. For the molecule `O=c1[nH]cc(Br)c2nc(NC3CCN(CC(F)(F)F)CC3)nc(Nc3ccc(Oc4ccccc4)cc3)c12` [Compound 250, 8-bromo-4-(4-phenoxyphenylamino)-2-(1-(2,2,2-trifluoroethyl)piperidin-4-ylamino)pyrido[4,3-d]pyrimidin-5(6H)-one], the IC50 on Truncated human Axl (Table 1, read-out: Axl (IC50)) is 101 to 1000 nM. For the molecule `CN1CCC(Nc2nc(Nc3ccc(Oc4ccccc4)c(F)c3)c3c(=O)[nH]cc(Br)c3n2)CC1` [Compound 245, 8-bromo-4-((3-fluoro-4-phenoxyphenyl)amino)-2-((1-methylpiperidin-4-yl)amino)pyrido[4,3-d]pyrimidin-5(6H)-one hydrochloride], the IC50 at Truncated human Axl (Table 1, read-out: Axl (IC50)) lay in the range of 11 to 100 nM.

With `CN1CCC(Nc2nc(Nc3ccc(OCc4ccccc4)cc3)c3c(=O)[nH]cc(Br)c3n2)CC1` [Compound 221, 4-((4-(benzyloxy)phenyl)amino)-8-bromo-2-((1-methylpiperidin-4-yl)amino)pyrido[4,3-d]pyrimidin-5(6H)-one], on Truncated human Axl (Table 1, read-out: Axl (IC50)), the IC50 was in the range of 101 to 1000 nM. Consider `CC(C)c1ccc(Oc2ccc(Nc3nc(NC4CCN(C)CC4)nc4c(Br)c[nH]c(=O)c34)cc2)cc1` [Compound 230, 8-bromo-4-((4-(4-isopropylphenoxy)phenyl)amino)-2-((1-methylpiperidin-4-yl)amino)pyrido[4,3-d]pyrimidin-5(6H)-one], for which the IC50 on Truncated human Axl (Table 1, read-out: Axl (IC50)) was 11 to 100 nM. For the molecule `Cc1cc(Nc2nc(NC3CCN(C)CC3)nc3c(Br)c[nH]c(=O)c23)ccc1Oc1ccccc1` [Compound 246, 8-bromo-4-((3-methyl-4-phenoxyphenyl)amino)-2-((1-methylpiperidin-4-yl)amino)pyrido[4,3-d]pyrimidin-5(6H)-one hydrochloride], the IC50 on Truncated human Axl (Table 1, read-out: Axl (IC50)) lay within 11 to 100 nM. In the case of `CN1CCC(Nc2nc(Nc3ccc(OCc4ccccc4)cc3)c3c(=O)[nH]cc(Br)c3n2)CC1` [Compound 234, 4-((4-(benzyloxy)phenyl)amino)-8-bromo-2-((1-methylpiperidin-4-yl)amino)pyrido[4,3-d]pyrimidin-5(6H)-one hydrochloride], on Truncated human Axl (Table 1, read-out: Axl (IC50)), the IC50 was in the range of 101 to 1000 nM. `CN1CCC(Nc2nc(Nc3ccc(Oc4ccc(F)cc4)cc3)c3c(=O)[nH]cc(Br)c3n2)CC1` [Compound 232, 8-bromo-4-((4-(4-fluorophenoxy)phenyl)amino)-2-((1-methylpiperidin-4-yl)amino)pyrido[4,3-d]pyrimidin-5(6H)-one hydrochloride]: the IC50 at Truncated human Axl (Table 1, read-out: Axl (IC50)) was 11 to 100 nM.

`Cc1cc(Nc2nc(NC3CCN(C)CC3)nc3c(Br)c[nH]c(=O)c23)ccc1Oc1cccc(F)c1` [Compound 244, 8-bromo-4-((4-(3-fluorophenoxy)-3-methylphenyl)amino)-2-((1-methylpiperidin-4-yl)amino)pyrido[4,3-d]pyrimidin-5(6H)-one hydrochloride]: the IC50 at Truncated human Axl (Table 1, read-out: Axl (IC50)) lay in the range of 11 to 100 nM.

With `CN1CCC(Nc2nc(Nc3ccc(Oc4ccc(Cl)cc4)cc3)c3c(=O)[nH]cc(Br)c3n2)CC1` [Compound 242, 8-bromo-4-((4-(4-chlorophenoxy)phenyl)amino)-2-((1-methylpiperidin-4-yl)amino)pyrido[4,3-d]pyrimidin-5(6H)-one hydrochloride], the IC50 at Truncated human Axl (Table 1, read-out: Axl (IC50)) was 11 to 100 nM. Turning to `CN1CCC(Nc2nc(Nc3ccc(OC4CCCCC4)cc3)c3c(=O)[nH]cc(Br)c3n2)CC1` [Compound 228, 8-bromo-4-((4-(cyclohexyloxy)phenyl)amino)-2-((1-methylpiperidin-4-yl)amino)pyrido[4,3-d]pyrimidin-5(6H)-one], the IC50 is 101 to 1000 nM on JAK2; 101 to 1000 nM at Truncated human Axl (Table 1, read-out: Axl (IC50)); 101 to 1000 nM on Truncated human Axl (setting [1]). Turning to `CN1CCC(Nc2nc(Nc3ccc(OCC4CCCC4)cc3)c3c(=O)[nH]cc(Br)c3n2)CC1` [Compound 227, 8-bromo-4-((4-(cyclopentylmethoxy)phenyl)amino)-2-((1-methylpiperidin-4-yl)amino)pyrido[4,3-d]pyrimidin-5(6H)-one], the IC50 at Truncated human Axl (Table 1, read-out: Axl (IC50)) lay within 101 to 1000 nM. `CN1CCC(Nc2nc(Nc3ccc(Oc4cccc(F)c4)c(F)c3)c3c(=O)[nH]cc(Br)c3n2)CC1` [Compound 247, 8-bromo-4-((3-fluoro-4-(3-fluorophenoxy)phenyl)amino)-2-((1-methylpiperidin-4-yl)amino)pyrido[4,3-d]pyrimidin-5(6H)-one hydrochloride]: at Truncated human Axl (Table 1, read-out: Axl (IC50)), the IC50 was in the range of 11 to 100 nM.

As to `Cc1ccccc1Oc1ccc(Nc2nc(NC3CCN(C)CC3)nc3c(Br)c[nH]c(=O)c23)cc1` [Compound 239, 8-bromo-2-((1-methylpiperidin-4-yl)amino)-4-((4-(o-tolyloxy)phenyl)amino)pyrido[4,3-d]pyrimidin-5(6H)-one hydrochloride], the IC50 at Truncated human Axl (Table 1, read-out: Axl (IC50)) lay in the range of 11 to 100 nM. With `Cc1ccc(Oc2ccc(Nc3nc(NC4CCN(C)CC4)nc4c(Br)c[nH]c(=O)c34)cc2)cc1` [Compound 231, 8-bromo-2-((1-methylpiperidin-4-yl)amino)-4-((4-(p-tolyloxy)phenyl)amino)pyrido[4,3-d]pyrimidin-5(6H)-one hydrochloride], at Truncated human Axl (Table 1, read-out: Axl (IC50)), the IC50 was in the range of 11 to 100 nM. With `CN1CCC(Nc2nc(Nc3ccc(Oc4ccccc4)cc3)c3c(=O)[nH]cc(Br)c3n2)CC1` [Compound 222, 8-bromo-2-((1-methylpiperidin-4-yl)amino)-4-((4-phenoxyphenyl)amino)pyrido[4,3-d]pyrimidin-5(6H)-one], the IC50 against JAK2 was 101 to 1000 nM.

Turning to `CC(C)c1ccc(Oc2ccc(Nc3nc(NC4CCN(C)CC4)nc4c(Br)c[nH]c(=O)c34)cc2)cc1` [Compound 236, 8-bromo-4-((4-(4-isopropylphenoxy)phenyl)amino)-2-((1-methylpiperidin-4-yl)amino)pyrido[4,3-d]pyrimidin-5(6H)-one hydrochloride], the IC50 on Truncated human Axl (Table 1, read-out: Axl (IC50)) fell in the range of 11 to 100 nM. On the same count and under the same terms, to `CN1CCC(Nc2nc(Nc3ccc(OC4CCCCC4)cc3)c3c(=O)[nH]cc(Cl)c3n2)CC1` [Compound 229, 8-chloro-4-((4-(cyclohexyloxy)phenyl)amino)-2-((1-methylpiperidin-4-yl)amino)pyrido[4,3-d]pyrimidin-5(6H)-one] belongs 101 to 1000 nM. Regarding `Cc1ccc(Oc2ccc(Nc3nc(NC4CCN(C)CC4)nc4c(Br)c[nH]c(=O)c34)cc2)cc1` [Compound 225, 8-bromo-2-((1-methylpiperidin-4-yl)amino)-4-((4-(p-tolyloxy)phenyl)amino)pyrido[4,3-d]pyrimidin-5(6H)-one], the IC50 on JAK2 lay within 1000 to 10000 nM; at Truncated human Axl (Table 1, read-out: Axl (IC50)), 11 to 100 nM; at Truncated human Axl (setting [1]), 11 to 100 nM. Turning to `CC(C)N1CCC(Nc2nc(Nc3ccc(Oc4ccccc4)cc3)c3c(=O)[nH]cc(Br)c3n2)CC1` [Compound 248, 8-bromo-2-(1-isopropylpiperidin-4-ylamino)-4-(4-phenoxyphenylamino)pyrido[4,3-d]pyrimidin-5(6H)-one], the IC50 at Truncated human Axl (Table 1, read-out: Axl (IC50)) lay in the range of 11 to 100 nM. As for `CCN1CCC(Nc2nc(Nc3ccc(Oc4ccccc4)cc3)c3c(=O)[nH]cc(Br)c3n2)CC1` [Compound 249, 8-bromo-2-(1-ethylpiperidin-4-ylamino)-4-(4-phenoxyphenylamino)pyrido[4,3-d]pyrimidin-5(6H)-one], on Truncated human Axl (Table 1, read-out: Axl (IC50)), the IC50 was in the range of 11 to 100 nM. As to `CN1CCC(Nc2nc(Nc3ccc(OC4CCCC4)cc3)c3c(=O)[nH]cc(Br)c3n2)CC1` [Compound 223, 8-bromo-4-((4-(cyclopentyloxy)phenyl)amino)-2-((1-methylpiperidin-4-yl)amino)pyrido[4,3-d]pyrimidin-5(6H)-one], the IC50 at JAK2 lay in the range of 101 to 1000 nM; at Truncated human Axl (Table 1, read-out: Axl (IC50)) it was 101 to 1000 nM; on Truncated human Axl (setting [1]), 101 to 1000 nM.
